Laboratory results published in the NIST ThermoML archive (doi:10.1021/je900091b).
Numbers after ± are expanded uncertainties.

Test: xn = mol fraction of the nth substance listed
Settings: Liquid

C=C(C)C(=O)OC [methyl methacrylate] + CCCCn1cc[n+](C)c1.F[P-](F)(F)(F)(F)F
Settings	mass density [kg/m3]	viscosity [mPa·s]
283.15 K, x1 = 0.0986	1360.73 ± 1.7	434.9 ± 64
283.15 K, x1 = 0.2094	1335.27 ± 1.6	218.03 ± 22
283.15 K, x1 = 0.3073	1310.42 ± 1.6	118.57 ± 7
283.15 K, x1 = 0.4053	1282.19 ± 1.5	64.04 ± 1.2
283.15 K, x1 = 0.4977	1250.45 ± 1.3	34.64 ± 0.61
283.15 K, x1 = 0.5993	1211.21 ± 1.2	17.78 ± 0.32
283.15 K, x1 = 0.7009	1164.35 ± 1	8.859 ± 0.18
283.15 K, x1 = 0.8003	1109.1 ± 0.84	3.909 ± 0.089
283.15 K, x1 = 0.9007	1042.12 ± 0.6	1.719 ± 0.041
283.15 K, x1 = 1	954.802 ± 0.57	0.6808 ± 0.018
288.15 K, x1 = 0.0986	1356.38 ± 1.7	308.34 ± 38
288.15 K, x1 = 0.2094	1330.98 ± 1.6	161.21 ± 13
288.15 K, x1 = 0.3073	1306.05 ± 1.5	91.29 ± 3.8
288.15 K, x1 = 0.4053	1277.72 ± 1.4	50.28 ± 0.29
288.15 K, x1 = 0.4977	1245.87 ± 1.3	28.16 ± 0.5
288.15 K, x1 = 0.5993	1206.49 ± 1.2	14.99 ± 0.28
288.15 K, x1 = 0.7009	1159.46 ± 1	7.717 ± 0.16
288.15 K, x1 = 0.8003	1103.97 ± 0.82	3.485 ± 0.079
288.15 K, x1 = 0.9007	1036.71 ± 0.58	1.575 ± 0.038
288.15 K, x1 = 1	949.097 ± 0.58	0.6337 ± 0.017
293.15 K, x1 = 0.0986	1352.04 ± 1.7	224.88 ± 23
293.15 K, x1 = 0.2094	1326.72 ± 1.6	122.32 ± 7.5
293.15 K, x1 = 0.3073	1301.68 ± 1.5	71.8 ± 1.8
293.15 K, x1 = 0.4053	1273.26 ± 1.4	40.3 ± 0.69
293.15 K, x1 = 0.4977	1241.3 ± 1.3	23.27 ± 0.41
293.15 K, x1 = 0.5993	1201.58 ± 1.2	12.81 ± 0.24
293.15 K, x1 = 0.7009	1154.07 ± 1	6.781 ± 0.14
293.15 K, x1 = 0.8003	1098.45 ± 0.8	3.136 ± 0.072
293.15 K, x1 = 0.9007	1031.1 ± 0.56	1.45 ± 0.035
293.15 K, x1 = 1	943.365 ± 0.6	0.5899 ± 0.016
298.15 K, x1 = 0.0986	1347.84 ± 1.7	168.14 ± 14
298.15 K, x1 = 0.2094	1322.45 ± 1.6	94.88 ± 4.2
298.15 K, x1 = 0.3073	1297.32 ± 1.5	55.22 ± 0.48
298.15 K, x1 = 0.4053	1268.81 ± 1.4	32.87 ± 0.57
298.15 K, x1 = 0.4977	1236.75 ± 1.3	19.54 ± 0.35
298.15 K, x1 = 0.5993	1197.09 ± 1.2	11.07 ± 0.21
298.15 K, x1 = 0.7009	1149.69 ± 0.98	6.014 ± 0.13
298.15 K, x1 = 0.8003	1093.72 ± 0.78	2.836 ± 0.065
298.15 K, x1 = 0.9007	1025.87 ± 0.54	1.342 ± 0.033
298.15 K, x1 = 1	937.615 ± 0.61	0.554 ± 0.015
303.15 K, x1 = 0.0986	1343.67 ± 1.7	128.46 ± 8.3
303.15 K, x1 = 0.2094	1318.17 ± 1.6	75.44 ± 2.2
303.15 K, x1 = 0.3073	1292.97 ± 1.5	44.49 ± 0.76
303.15 K, x1 = 0.4053	1264.37 ± 1.4	27.22 ± 0.48
303.15 K, x1 = 0.4977	1232.2 ± 1.3	16.62 ± 0.3
303.15 K, x1 = 0.5993	1192.4 ± 1.1	9.662 ± 0.19
303.15 K, x1 = 0.7009	1144.81 ± 0.97	5.374 ± 0.12
303.15 K, x1 = 0.8003	1088.59 ± 0.77	2.583 ± 0.06
303.15 K, x1 = 0.9007	1020.43 ± 0.52	1.247 ± 0.031
303.15 K, x1 = 1	931.837 ± 0.63	0.5248 ± 0.015
308.15 K, x1 = 0.0986	1339.49 ± 1.7	100.54 ± 4.8
308.15 K, x1 = 0.2094	1313.91 ± 1.6	58.33 ± 0.7
308.15 K, x1 = 0.3073	1288.62 ± 1.5	36.45 ± 0.63
308.15 K, x1 = 0.4053	1259.94 ± 1.4	22.86 ± 0.4
308.15 K, x1 = 0.4977	1227.67 ± 1.3	14.29 ± 0.27
308.15 K, x1 = 0.5993	1187.73 ± 1.1	8.505 ± 0.17
308.15 K, x1 = 0.7009	1139.93 ± 0.95	4.838 ± 0.11
308.15 K, x1 = 0.8003	1083.46 ± 0.75	2.369 ± 0.055
308.15 K, x1 = 0.9007	1014.97 ± 0.5	1.165 ± 0.029
308.15 K, x1 = 1	926.032 ± 0.65	0.4956 ± 0.014
313.15 K, x1 = 0.0986	1335.32 ± 1.6	80.4 ± 2.7
313.15 K, x1 = 0.2094	1309.66 ± 1.5	47.27 ± 0.8
313.15 K, x1 = 0.3073	1284.28 ± 1.5	30.27 ± 0.52
313.15 K, x1 = 0.4053	1255.53 ± 1.4	19.43 ± 0.35
313.15 K, x1 = 0.4977	1223.15 ± 1.2	12.43 ± 0.23
